{"source": "patent US11285218B2", "about": "“Degradation of bromodomain-containing protein 9 (BRD9) by conjugation of BRD9 inhibitors with E3 ligase ligand and methods of use” (Dana-Farber Cancer Institute, Inc., priority 2016, dated 2022)", "key": {"[1]": {"biological_target": "BRD4(1) (Homo sapiens, UniProt O60885)", "experiment": "BRD4(1) ligand-displacement AlphaScreen", "format": "binding", "set-up": "substituting protein and biotin-probe components for BRD4(1) protein at 20 nM final; His tag (inferred from Ni-coated acceptor beads)"}, "[2]": {"biological_target": "T1, BRD9 (Homo sapiens, UniProt Q9H8M2)", "T1 sequence (Q9H8M2 1-597)": "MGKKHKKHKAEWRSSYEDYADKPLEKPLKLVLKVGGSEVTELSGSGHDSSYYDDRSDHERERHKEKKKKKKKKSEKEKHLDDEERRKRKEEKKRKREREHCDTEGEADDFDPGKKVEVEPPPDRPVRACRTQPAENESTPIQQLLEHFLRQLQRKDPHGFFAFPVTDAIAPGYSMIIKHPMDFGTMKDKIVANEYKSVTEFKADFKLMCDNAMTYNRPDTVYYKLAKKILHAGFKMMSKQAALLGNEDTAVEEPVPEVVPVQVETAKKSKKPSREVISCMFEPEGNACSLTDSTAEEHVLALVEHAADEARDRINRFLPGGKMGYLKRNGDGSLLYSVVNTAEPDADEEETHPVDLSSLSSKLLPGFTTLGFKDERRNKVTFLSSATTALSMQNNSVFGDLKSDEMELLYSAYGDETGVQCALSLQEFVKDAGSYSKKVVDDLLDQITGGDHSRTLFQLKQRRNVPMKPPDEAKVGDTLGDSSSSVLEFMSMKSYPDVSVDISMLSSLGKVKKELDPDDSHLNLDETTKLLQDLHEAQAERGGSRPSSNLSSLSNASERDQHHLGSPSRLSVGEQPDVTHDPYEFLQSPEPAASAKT", "experiment": "BRD9 immunoblot in MM1S CRBN knockout cells", "settings": "MM.1S CRBN knockout cell line, 4 hour treatment, indicated doses", "description": "(§2) In additional experiments, cells were washed with PBS, before being lysed in RIPA buffer supplemented with 1×HALT™ protease inhibitor cocktail (Thermo Scientific) for 10 min on ice, followed by low-amplitude sonication for 10 seconds at 4° C. […] In soluble material was removed by centrifugation at 20,000×g for 20 min before protein content was quantified by BCA assay (Pierce). […] Blots were imaged using fluorescence-labeled secondary antibodies (LI-COR) on the OdysseyCLxImager (LI-COR)."}, "[3]": {"biological_target": "BRD4:CRBN-DDB1 protein complex (Homo sapiens, UniProt O60885+Q96SW2)", "experiment": "CRBN-DDB1/BRD4 dimerization assay (luminescence)", "settings": "in words", "description": "(§3) To detect CRBN-DDBI/BRD4 dimerization, we adapted bead-based AlphaScreen technology. […] Compounds were then pinned at 100 nL per well from DMSO stock. After 1 incubation at room temperature. Nickel Chelate AlphaLISA Acceptor and Glutathione AlphaLISA Donor beads (PerkinElmer) were diluted in assay buffer to 20 μg/mL and added at 20 μl per well."}, "[4]": {"biological_target": "BRD4 (Homo sapiens, UniProt O60885)", "experiment": "BRD4 immunoblot in MOLM-13", "settings": "MOLM-13, 4 hour treatment", "description": "In additional experiments, cells were washed with PBS, before being lysed in RIPA buffer supplemented with 1×HALT™ protease inhibitor cocktail (Thermo Scientific) for 10 min on ice, followed by low-amplitude sonication for 10 seconds at 4° C. (Q125, QSonica, USA). In soluble material was removed by centrifugation at 20,000×g for 20 min before protein content was quantified by BCA assay (Pierce). […] Blots were imaged using fluorescence-labeled secondary antibodies (LI-COR) on the OdysseyCLxImager (LI-COR)."}, "[5]": {"biological_target": "T2, BRD3(1) (Homo sapiens, UniProt Q15059)", "T2 construct": "utilizing DNA-tagged bromodomain and immobilized ligand attached to solid support", "T2 sequence (Q15059 34-140 limits assumed)": "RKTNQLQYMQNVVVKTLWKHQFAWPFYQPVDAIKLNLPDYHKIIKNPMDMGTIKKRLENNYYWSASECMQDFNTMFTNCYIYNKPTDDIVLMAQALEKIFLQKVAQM", "experiment": "BromoScan single-point screen", "format": "binding", "settings": "percent of protein captured on solid support vs control", "text": "(§1) The BromoScan is an assay that measures the engagement of compounds with bromodomain proteins by utilizing DNA-tagged bromodomain and immobilized ligand attached to solid support. In the control test, DNA-tagged bromodomain binds to the ligand and the bromodomain is captured on the solid support. Compounds that compete for the bromodomain binding location on the ligand will prevent the bromodomain from binding, resulting in less protein captured on the solid support."}, "[6]": {"biological_target": "BRD7 (Homo sapiens, UniProt Q9NPI1)", "sequence (Q9NPI1 whole entry)": "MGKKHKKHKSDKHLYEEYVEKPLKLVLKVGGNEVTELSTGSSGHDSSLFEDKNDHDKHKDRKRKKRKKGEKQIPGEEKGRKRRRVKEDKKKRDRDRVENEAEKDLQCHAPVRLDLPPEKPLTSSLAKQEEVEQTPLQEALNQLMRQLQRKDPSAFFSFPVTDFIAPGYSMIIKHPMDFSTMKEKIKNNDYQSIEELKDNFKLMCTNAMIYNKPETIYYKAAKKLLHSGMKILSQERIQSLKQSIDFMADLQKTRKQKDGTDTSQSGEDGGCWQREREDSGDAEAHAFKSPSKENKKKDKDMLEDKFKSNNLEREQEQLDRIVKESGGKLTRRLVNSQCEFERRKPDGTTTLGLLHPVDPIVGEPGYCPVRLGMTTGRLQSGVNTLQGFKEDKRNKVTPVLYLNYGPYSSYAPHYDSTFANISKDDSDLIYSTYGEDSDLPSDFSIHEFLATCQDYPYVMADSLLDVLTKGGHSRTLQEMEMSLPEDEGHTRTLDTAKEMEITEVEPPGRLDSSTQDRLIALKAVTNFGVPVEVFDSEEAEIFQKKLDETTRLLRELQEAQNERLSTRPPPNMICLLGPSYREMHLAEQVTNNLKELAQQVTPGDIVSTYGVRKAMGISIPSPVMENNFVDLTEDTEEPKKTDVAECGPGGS", "experiment": "BRD7 immunoblot in MOLM-13", "settings": "MOLM-13, 4 hour treatment", "description": "as §2"}, "[7]": {"biological_target": "T3, CRBN-DDB1 (Homo sapiens, UniProt Q96SW2)", "T3 construct": "made in house; host or cells: Sf9 cells (Invitrogen)", "experiment": "CRBN-DDB1 ligand-displacement AlphaScreen", "format": "binding", "settings": "purified CRBN-DDB1 ligand displacement", "experimental": "Following a 30 min incubation, 20 uL detection solution containing Streptavidin Donor Beads and Nickel Chelate AlphaLISA® Acceptor Beads diluted to 20 ng/uL in assay buffer was added to each well."}, "[8]": {"biological_target": "T4, BRD9 (Homo sapiens, UniProt Q9H8M2)", "T4 construct": "A construct of human BRD9 covering residues 134-0245 in the pET28PP vector; made in house; host or cells: E. coli BL21 (DE3)", "T4 sequence (Q9H8M2 134-245 limits assumed)": "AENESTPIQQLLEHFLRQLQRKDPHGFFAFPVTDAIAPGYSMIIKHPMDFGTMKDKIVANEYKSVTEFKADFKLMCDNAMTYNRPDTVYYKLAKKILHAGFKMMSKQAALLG", "experiment": "BRD9-ligand displacement AlphaScreen", "format": "binding", "experimental": "BRD9 assays were performed with minimal modifications from the manufacturer's protocol (PerkinElmer, USA). All reagents were diluted in 50 mM HEPES, 150 mM NaCl, 0.1% w/v BSA, 0.01% w/v Tween20, pH 7.5. […] Plates were spun down at 150×g, and 100 nL of DMSO compound stock was added from pre-diluted plates by pin transfer using a Janus Workstation (PerkinElmer, USA). Under low light, a 2× suspension of Ni-coated Acceptor Beads and Streptavidin Donor Beads, was then added at 10 ul/well to a final concentration of 5 μg/ml by EL406 automated liquid handler (Biotek, USA)."}, "[9]": {"biological_target": "T1, BRD9", "experiment": "BRD9 immunoblot in MM1S cells", "description": "as §2"}, "[10]": {"test_system": "MOLM-13 cell line", "experiment": "ATPlite viability assay, MOLM-13", "settings": "MOLM-13, 72 hours; in words", "description": "(§4) 500 cells/well were plated at a volume of 40 μL/well in white tissue culture treated 384 well assay plates (Thermo Scientific) before DMSO compound stock was added from pre-diluted plates by pin transfer using a Janus Workstation (PerkinElmer, USA). […] Assay plates were allowed to equilibrate to RT for 30 min before reconstituted ATPlite 1 Step reagent (Perkin Elmer) was dispensed at 1:1 volume/well by EL406 automated liquid handler (Biotek, USA)."}, "[11]": {"test_system": "MM.1S multiple myeloma line", "experiment": "ATPlite viability assay, MM.1S", "settings": "72 hour treatment, in words", "description": "as §4"}, "[12]": {"biological_target": "BRD9:CRBN-DDB1 protein complex (Homo sapiens, UniProt Q96SW2+Q9H8M2)", "experiment": "BRD9:CRBN-DDB1 dimerization assay (luminescence)", "settings": "for formation of the BRD9:CRBN-DDB1 protein complex: in words", "description": "To measure this activity, a homogenous luminescence assay was developed to report on compound-induced proximity of BRD9 and CRBN.\nas §3"}, "[13]": {"test_system": "MV411 cell line", "experiment": "ATPlite viability assay, MV4;11", "settings": "MV4;11, 72 hours; in words", "description": "as §4"}, "[14]": {"test_system": "TRIM33 (PHD, Bromo.)", "experiment": "BromoScan single-point screen", "format": "binding, human", "settings": "percent of protein captured on solid support vs control", "text": "as §1"}, "[15]": {"test_system": "32 members of the human bromodomain family", "experiment": "BromoScan single-point screen, panel profile", "format": "binding", "settings": "single-point 1 μM, 32 bromodomains; in words", "text": "as §1"}, "[16]": {"biological_target": "T1, BRD9", "experiment": "BRD9 immunoblot in MOLM-13", "description": "as §2"}, "[17]": {"biological_target": "T1, BRD9", "experiment": "BRD9 degradation / cellular activity (Western blot, cell line not stated)", "settings": "cell line not given"}, "[18]": {"settings": "MMIS cells, 4 hours pretreatment, then 100 nM"}, "[19]": {"settings": "luminescence detection of dimerization assay"}}, "note": "“Also recorded” adds a separate entry of the source.", "data": [{"compound": "COc1cc(-c2cn(C)c(=O)c3cc(C(=N)NC4CCS(=O)(=O)CC4)sc23)ccc1OCC(=O)NCCCCCCCCNc1cccc2c1CN(C1CCC(=O)NC1=O)C2=O", "note": "(centres unmarked) [Compound I-17]", "values": [{"measurement": "IC50", "setting": "[1]", "result": 1.71, "unit": "µM"}, {"measurement": "BRD9 degradation (immunoblot)", "setting": "[2]", "result": "little to no BRD9 degradation"}, {"measurement": "formation of the BRD4:CRBN-DDB1 protein complex", "setting": "[3]", "result": "effectively induce biochemical association"}, {"measurement": "BRD4 degradation (immunoblot)", "setting": "[4]", "result": "Off target degradation of BRD4, observed at high concentrations"}, {"measurement": "% Ctrl @ 1 μM", "setting": "[5]", "result": 5, "unit": "% Ctrl"}, {"measurement": "BRD7 degradation (immunoblot)", "setting": "[6]", "result": "degradation was observed"}, {"measurement": "IC50", "setting": "[7]", "result": 0.0112, "unit": "µM"}, {"measurement": "IC50", "setting": "[8]", "result": 0.0123, "unit": "µM"}, {"measurement": "BRD9 degradation after pretreatment with excess I-BRD9", "setting": "[9]; [18]", "result": "prevented degradation"}, {"measurement": "BRD9 degradation after pretreatment with excess lenalidomide", "setting": "[9]; [18]", "result": "prevented degradation"}, {"measurement": "BRD9 degradation with co-treatment with carfilzomib", "setting": "[9]; [18]", "result": "Degradation was abolished"}, {"measurement": "BRD9 levels after pretreatment with neddylation inhibitor (MLN-4924)", "setting": "[9]; [18]", "result": "rescued BRD9 levels"}, {"measurement": "BRD9 loss (immunoblot)", "setting": "[9]; wild type MM.1S cells, 4 hour treatment, indicated doses", "result": "marked dose-dependent BRD9 loss"}, {"measurement": "half-maximal anti-proliferative concentration", "setting": "[10]", "result": "low nanomolar"}, {"measurement": "maximal efficacy on cell proliferation", "setting": "[10]", "result": "significantly exceeded that of the more selective I-25"}, {"measurement": "efficacy on viability", "setting": "[11]", "result": "comparable efficacy"}, {"measurement": "BRD9:CRBN-DDB1 dimerization, comparison in words", "setting": "[12]", "result": "superior; also recorded: effectively induce biochemical association"}, {"measurement": "BRD9:CRB9-DDB1 AUC", "setting": "[12]; [19]", "result": 80620}, {"measurement": "BRD9:CRB9-DDB1 Cmax", "setting": "[12]; [19]", "result": 26.2, "unit": "nM"}, {"measurement": "formation of the BRD9:CRBN-DDB1 protein complex", "setting": "[12]; relative to unmodified pomalidomide", "result": "significantly induce formation of the complex"}, {"measurement": "formation of the BRD9:CRBN-DDB1 protein complex", "setting": "[12]; relative to unmodified thalidomide", "result": "significantly induce formation of the complex"}, {"measurement": "half-maximal anti-proliferative concentration", "setting": "[13]", "result": "low nanomolar"}, {"measurement": "maximal efficacy on cell proliferation", "setting": "[13]", "result": "significantly exceeded that of the more selective I-25"}, {"measurement": "% Ctrl @ 1 μM", "setting": "[14]", "result": 100, "unit": "% Ctrl"}, {"measurement": "bromodomain interaction profile", "setting": "[15]", "result": "also BRD7 and members of the BET family"}, {"measurement": "time to near complete BRD9 loss", "setting": "[16]; MOLM-13, 100 nM", "result": "≤ 1", "unit": "h"}, {"measurement": "return of BRD9 during treatment", "setting": "[16]; MOLM-13, 100 nM, 24-hour treatment period", "result": "no detectable return"}, {"measurement": "BRD9 protein level (immunoblot)", "setting": "[16]; MOLM-13, 4 hour treatment, indicated concentrations, in words", "result": "effectively downregulate BRD9 over a broad range of concentrations; also recorded: effectively downregulating BRD9 protein over a broad range of concentrations"}, {"measurement": "BRD9 degradation / cellular potency, in words", "setting": "[17]", "result": "superior"}]}]}
